Assay results taken from US20220151890A1, “EFFICIENT SUNSCREEN COMPOSITIONS WITH DIETHYLAMINO HYDROXYBENZOYL HEXYL BENZOATE AND BUTYL METHOXYDIBENZOYLMETHANE” (BASF SE, priority 2019, published 2022).
Structures can show the parent of a compound that is named as a salt.

Columns and labels:
[1] = description of the commercial UV filter; cited from earlier work
[2] = Recovery measurements on photo stability of BEMT (irradiated film on quartz plates, HPLC); type: physicochemical; settings: presence of BMDBM in the composition
Experimental: Recovery measurements on photo stability of BEMT
The sunscreen and UV filter compositions as defined above are applied on roughened quartz plates (2 μl/cm^2). Plates are irradiated using Atlas CPS device at different duration times:
(§1) 0h (0 MED, no irradiation)
4h (20 MED). In total, four plates are prepared for each irradiation condition. After irradiation, each plate is rinsed off with tetrahydrofuran. The rinsing solution is further analyzed via HPLC to determine the recovery of BEMT.

[3] = Recovery measurements on photo stability of BMDBM (irradiated film on quartz plates, HPLC); type: physicochemical; settings: octocrylene free sunscreen composition
Experimental: Recovery measurements on photo stability of BMDBM
The sunscreen and UV filter compositions as defined above are applied on roughened quartz plates (2 μl/cm^2). Plates are irradiated using Atlas CPS device at different duration times (MED=Minimal Erythema Dose):
as §1
4h (20 MED). In total, four plates are prepared for each irradiation condition. After irradiation, each plate is rinsed off with tetrahydrofuran. The rinsing solution is further analyzed via HPLC to determine the recovery of BMDBM.

[4] = UV filter performance: wavelength of maximum absorbance of BMDBM in emollient; type: physicochemical; settings: BMDBM dissolved in the listed emollient; UV/Vis 290 to 400nm, 1 cm cuvette
Experimental: (§2) The wavelength of maximum absorbance (,max) is an indicator to describe the performance of a UV filter molecule. It gives the wavelength at which the absorbance is at maximum. […] The UV transmission spectrum of each UV filter - emollient mixture was measured from 290 to 400nm using a UV/Vis spectrophotometer Perkin Elmer Lambda 25. Three stock solutions with a concentration of 1mM of UV filter were prepared for each mixture. Further, three dilutions of each stock solution were prepared resulting in nine measurements in total per UV filter-emollient solution. Then, all solutions were filled in UV transparent quartz cuvette of 1 cm optical path-length for UV Transmission measurements.

[5] = UV filter performance: wavelength of maximum absorbance of DHHB in emollient; type: physicochemical; settings: DHHB dissolved in the listed emollient; UV/Vis 290 to 400nm, 1 cm cuvette
Experimental: as §2

[6] = Measurement of interfacial tension (polarity index) of emollients; type: physicochemical; settings: interfacial tension between emollient and water, Tensimat Densimat TD2000
Text: The term “polarity index” refers to non-polar or polar oils. Non-polar oils are mainly based on hydrocarbons and lack an electronegative element, such as oxygen. In contrast, polar oils contain heteroatoms that differ in electronegativity, which results in a dipole moment. However, such oils are still insoluble in water, i.e. hydrophob. The polarity index can be determined by measuring the interfacial tension between the respective oil and water.
Measurement of interfacial tension (polarity index)
Interfacial tension of the respective emollients as listed below was measured using a Tensimat Densimat TD2000.

Row | SMILES | λmax values (BMDBM) [4] | λmax values (DHHB) [5] | polarity index [6] | absorption maximum [1] | further results
1 | COc1ccc(C(=O)CC(=O)c2ccc(C(C)(C)C)cc2)cc1 [BMDBM, 1-(4-(1,1-dimethylethyl)phenyl)-3-(4-methoxyphenyl)propane-1,3-dione] |  |  |  | 357 nm | effect on stability of BEMT, in words [2]: destabilizes the UV filter BEMT
2 | c1ccc(-c2ccc(-c3nc(-c4ccc(-c5ccccc5)cc4)nc(-c4ccc(-c5ccccc5)cc4)n3)cc2)cc1 [tris-biphenyl triazine, 2,4,6-Tris(biphenyl-4-yl)-1,3,5-triazine] |  |  |  | 310 nm | 
3 | CCCCCCOC(=O)c1ccccc1C(=O)c1ccc(N(CC)CC)cc1O [DHHB, hexyl 2-[4-(diethylamino)-2-hydroxybenzoyl]benzoate] |  |  |  | 354 nm | effect on photo stability of BMDBM and BEMT, in words [3]: stabilizes the UV filter BMDBM and BEMT
4 | CCCCC(CC)COC(=O)c1ccc(Nc2nc(Nc3ccc(C(=O)NC(C)(C)C)cc3)nc(Nc3ccc(C(=O)OCC(CC)CCCC)cc3)n2)cc1 (stereo not drawn) [diethylhexyl-butamidotriazone, 4,4′-[[6-[[4-[[(1,1-dimethylethyl)amino]carbonyl]phenyl]amino]-1,3,5-triazin-2,4-diyl]diimino]bis-benzoic acid-bis(2-ethylhexyl)ester] |  |  |  | 310 nm | 
5 | CCCCOC(=O)CC(O)(CC(=O)OCCCC)C(=O)OCCCC [tributyl citrate] | 359 nm | 352 nm | 10 mN/m |  | 
6 | CCCCCCCCCCC(CO)CCCCCCCC (stereo not drawn) [octyldodecanol] | 357 nm | 349 nm | 25 mN/m |  | 
7 | O=C(OCCc1ccccc1)c1ccccc1 [phenethyl benzoate] | 362 nm | 355 nm | 19 mN/m |  | 
8 | CCCCOC(=O)CCCCC(=O)OCCCC [dibutyl adipate] |  | 351 nm |  |  | 

The next lines start with results.

Row | λmax values (BMDBM) [4] | λmax values (DHHB) [5] | polarity index [6] | SMILES | absorption maximum [1] | further results
9 | 357 nm |  |  | CCCCCCCCCCCCCC(=O)OC(C)C [isopropyl myristate] |  | 
10 | 357 nm | 351 nm | 12 mN/m | CC(C)OC(=O)CCCCC(=O)OC(C)C [diisopropyl adipate] |  | 
11 | 359 nm | 353 nm |  | CCOC(=O)CC(O)(CC(=O)OCC)C(=O)OCC [triethyl citrate] |  | 
12 | 357 nm | 350 nm |  | CC(C)OC(=O)CCCCCCCCC(=O)OC(C)C [diisopropyl sebacate] |  | 
